Key:
FLT3L-DCs = assay: FLT3L-DC cross-priming of OT-I T cells in vitro (IFN-γ cytometric bead array); type: cell-based, mouse; details: 10 μM SAA 12 hours
Protocol: Bone marrow was isolated from wild-type and Ythdf1^−/− mice and treated with red cell lysis buffer to remove red blood cell. IMDM medium containing 10% fetal bovine serum was used to suspend bone marrow cells. To culture FLT3L-DCs, cell concentration was adjusted to 1×10^6/mL. Cells were cultured with 100 ng/mL FLT3L for 9 days to get mature FLT3L-DCs. Mature FLT3L-DCs were purified via EasySep Mouse CD11c Positive Selection Kit II, then treated with 10 μM SAA or DMSO in IMDM medium (contain 10% bovine and 100 ng/mL FLT3L) for 10 hours.
For in vitro cross-presentation study, mature FLT3L-DCs were harvested on day 9 and purified by EasySep Mouse CD11 c Positive Selection Kit II, then treated with 10 μM SAA or DMSO in IMDM medium (contain 10% bovine and 100 ng/mL FLT3L) for 10 h. […] Then antigen-obtained DCs were purified and co-cultured with naïve T cells from OT-1 mice at a ratio of 1:10 for 96 h. The co-culture medium was 1640 RPMI contains 10% fetal bovine with or without 1 μg/mL OT-1 (OVA 257-264) peptide. […] Supernatant IFN-γ production was detected via CBA assay.
Bone marrow derived cells (wildtype or Ythdf1 gene deficient) were cultured with FLT3L for 9 days to get FLT3L-DC and these DCs were treated with 10 μM SAA for 12 hours, then, FLT3L-DCs were co-cultured with necrotic B16-OVA tumor cell for 6 hours. […] IFN-γ production was assessed by IFN-γ cytometric bead array.

His-YTHDF1 (361-559) = biological target: T1, His-YTHDF1 (361-559) (Homo sapiens, UniProt Q9BYJ9); assay: AlphaScreen competition assay against non-biotinylated m6A-containing mRNA; type: binding
T1 construct: made in house; host or cells: E. coli BL21 (DE3)
T1 sequence (Q9BYJ9 with tags, fused parts or gaps): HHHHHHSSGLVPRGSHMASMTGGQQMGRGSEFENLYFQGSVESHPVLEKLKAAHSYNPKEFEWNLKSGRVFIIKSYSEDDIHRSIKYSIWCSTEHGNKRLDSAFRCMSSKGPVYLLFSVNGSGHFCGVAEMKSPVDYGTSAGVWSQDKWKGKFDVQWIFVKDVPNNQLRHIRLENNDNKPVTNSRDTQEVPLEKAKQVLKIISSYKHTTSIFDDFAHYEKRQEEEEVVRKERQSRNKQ
Protocol: 200 nM His-YTHDF1 (361-559) was incubated with non-biotinylated m^6A-containing mRNA at 4° C. for 10 minutes. […] Next, 20 nM biotinylated m^6A-containing mRNA and two kinds of beads were added in subdued light and incubated at 4° C. for 1 hour before detection.
A competitive binding experiment was performed against fixed concentrations of non-biotinylated m^6A-containing mRNA, based on AlphaScreen assay, using 200 nM YTHDF1 and 20 nM biotinylated m^6A-containing mRNA.

YTHDF1 mutant N378A = biological target: T2, YTHDF1 mutant N378A (Homo sapiens, UniProt Q9BYJ9, N378A); assay: FP assay with YTHDF1 mutant N378A; type: binding
T2 construct: GST (N, cleaved yes); made in house; host or cells: E. coli BL21 (DE3)
T2 sequence (Q9BYJ9 with tags, fused parts or gaps N378A): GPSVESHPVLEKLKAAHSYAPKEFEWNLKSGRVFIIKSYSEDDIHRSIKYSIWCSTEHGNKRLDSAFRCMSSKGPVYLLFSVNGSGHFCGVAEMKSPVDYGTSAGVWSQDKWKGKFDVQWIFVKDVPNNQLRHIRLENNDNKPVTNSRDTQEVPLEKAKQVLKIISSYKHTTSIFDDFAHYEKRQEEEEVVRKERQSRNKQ
Protocol: The protein YTHDF1 (361-559) (SEQ ID NO: 2) and its mutants (SEQ ID NOs: 4-13) were cloned into pGEx-6P-1 vector (obtained from YouBio Co, Ltd, Catalog NO: VT1258), and the His-YTHDF1 (361-559) (SEQ ID NO: 3) used in AlphaScreen Assay was cloned into modified pET28a vector (obtained from YouBio Co, Ltd, Catalog NO: VT1207). The vectors were transformed into E. coli BL21 (DE3) cells and cultured at 37° C. When OD value reached 0.6˜0.8, 1 mM Isopropyl-β-D-thiogalactopyranoside was added to overexpress the protein at 16° C. overnight. […] Then, the proteins were further purified via cation exchange (HiTrap SP, GE Healthcare) and finally through a Superdex 75 10/300 column (GE Healthcare). At last, the purified YTHDF1(361-559) and the mutants were kept in buffer which contains 20 mM Hepes (pH 7.4) and 200 mM NaCl. For His-YTHDF1 (361-559), the protein was purified via Ni-NTA chromatography (HisTrap FF, GE Healthcare), followed by cation exchange and Superdex 75 10/300 column in sequence. And the obtained protein was kept in the buffer with the same ingredients.
All of the YTHDF1 (361-559), the 5′-FAM labeled m^6A-containing mRNA (5′-FAM-[…] (m^6A) CUGUG-3′, SEQ ID NO: 14) and the candidate compounds were diluted with assay buffer (20 mM Hepes (pH 7.4), 50 mM NaCl, 0.01% (v/v) tween 20, 5% (v/v) glycerol). […] At last, the mixtures were measured by Envision Readers (PerkinElmer). […]

Structure (SMILES): O=C(/C=C/c1ccc(O)c(O)c1/C=C/c1ccc(O)c(O)c1)O[C@H](Cc1ccc(O)c(O)c1)C(=O)O [SAA, Salvianolic Acid A]
- cross-presentation function (IFN-γ production) (FLT3L-DCs; Ythdf1-/- FLT3L-DCs): could also promote the cross-presentation function
- cross-priming of T cells (IFN-γ production) (FLT3L-DCs; wildtype FLT3L-DCs): better ability in cross-priming T cells than control group
- inhibitory activity against YTHDF1 with competitor (His-YTHDF1 (361-559); 50 nM, 100 nM, 200 nM or 400 nM non-biotinylated m6A-containing mRNA preincubated with YTHDF1): remained unchanged
- IC50 (His-YTHDF1 (361-559); absence of non-biotinylated m6A-containing mRNA, 200 nM YTHDF1, 20 nM biotinylated mRNA, read-out: inhibitory activity against YTHDF1): 800 ± 80 nM
- inhibitory activity against mutant binding to m6A versus wildtype (YTHDF1 mutant N378A): significantly weaker than that against wildtype YTHDF1

From patent US20240033244A1, “COMPOSITIONS AND METHODS FOR INHIBITING YTHDF1” (SHANGHAI INSTITUTE OF MATERIA MEDICA, CHINESE ACADEMY OF …, priority 2020, published 2024)
